Results reported in US20100204151A1, “USE OF A PEPTIDE AS A THERAPEUTIC AGENT” (priority 2007, published 2010).

Legend:
HIV-1IIIB = assay: HIV-1 antiviral assay (CPE reduction) in CEM-SS cells; type: cell-based; settings: for antiviral activity of positive control compounds: HIV-1 assay validity statement; for % CPE reduction in HIV-1 infected CEM-SS cells: test peptide 10 micrograms per ml, 6 days post-infection, MTS
CEM-SS cells = assay: Cytotoxicity in the HIV-1 assay (MTS cell viability); settings: test peptide 10 micrograms per ml
HCMV strain AD169 = assay: HCMV plaque reduction assay in MRC-5 cells
[1] = tested on: hepatitis B virus (HBV) ayw strain; assay: HBV replication assay in HepG2-2.2.15 cells (TaqMan PCR of secreted HBV DNA); type: cell-based; settings: test peptide 10 micrograms per ml; six days; HBV DNA in supernatant
[2] = Cytotoxicity in the HBV assay (dye uptake cell viability); type: cell-based; settings: human, HepG2-2.2.15 cells, test peptide 10 micrograms per ml
Pseudomonas aeruginosa = type: cell-based; settings: 5 micrograms per ml
Streptococcus pneumoniae = type: cell-based; settings: 5 micrograms per ml
A549 cells [3] = assay: Propidium iodide cell cycle assay; type: cell-based, human; settings: 10 micrograms per ml, 24 hours, propidium iodide FACS
Procedure: Human A549 cells (carcinomic human alveolar basal epithelial cells) were utilized in the experiments employing the Propidium iodide cell cycle assay. […] Propidium iodide is an intercalating agent and a fluorescent molecule that can be used to stain DNA. […] Thereafter, cells were pelleted at 1500 rpm for 5 min and resuspended in Propidium iodide solution in PBS. After incubation for 40 min at 37° C., cells were analyzed in the FACS.

[4] = tested on: Human Peripheral Blood Mononuclear Cells (PBMC); assay: B cell proliferation assay (SAC plus Interleukin-2 stimulated PBMC, 3H-thymidine); type: cell-based; settings: 10 micrograms per ml, 3 days plus 12 hours 3H-thymidine
RAW 264.7 cells = assay: Phagocytosis assay (Fluorescein-labeled Escherichia coli, flow cytometry); type: cell-based, mouse; settings: 10 micrograms per ml, 30 min preincubation, 60 min ingestion
A549 cells [5] = assay: Apoptosis induction assay (Annexin-5); type: cell-based, human; settings: 10 micrograms per ml, 24 hours
From the text: Human A549 cells (carcinomic human alveolar basal epithelial cells) were utilized in the experiments employing the Annexin-5 apoptosis assay.

A549 cells [6] = assay: Apoptosis prevention assay (C2 ceramide, Annexin-5); type: cell-based, human; settings: 10 micrograms per ml, 30 min pretreatment, then C2 ceramide
spleen cells = assay: Th1/Th2 cytokine profiling assay (Ovalbumin-restimulated spleen cells, CBA kit); type: cell-based, Balb/c mice; settings: 10 micrograms per ml; Ovalbumin restimulation; 72 hours
[7] = tested on: macrophages prepared from PBMC; assay: TNF alpha production assay (LPS-stimulated macrophages, ELISA); type: cell-based, human; settings: 10 micrograms per ml, lipopolysaccharide 200 ng/ml, overnight
From the text: Not stimulated macrophages served as negative background control.

[8] = tested on: Primary Human endothelial cells (HUVEC); assay: Endothelial cell migration assay; type: cell-based; settings: 10 micrograms per ml, 22 hours
HUVEC = assay: Endothelial tube formation assay; type: cell-based, human; settings: 10 micrograms per ml, 20 hours
From the text: Positive control was vehicle only.

MRSA = settings: 5 micrograms per ml
in vitro [9] = settings: human, CEM-SS cells
in vitro [10] = settings: human, MRC-5 cells (embryonal lung fibroblasts)
[11] = tested on: Human Peripheral Blood Mononuclear Cells (PBMC); assay: T cell proliferation assay (PHA-stimulated PBMC, 3H-thymidine); settings: 10 micrograms per ml, 3 days plus 12 hours 3H-thymidine

## Cc1cn([C@H]2C[C@H](N=[N+]=[N-])[C@@H](CO)O2)c(=O)[nH]c1=O [AZT]
HIV-1IIIB
  antiviral activity of positive control compounds: expected levels of antiviral activity
  % CPE reduction in HIV-1 infected CEM-SS cells: 99%
CEM-SS cells
  % Cell viability: 97%

## Nc1nc(O)c2ncn(COC(CO)CO)c2n1 [Ganciclovir, reference compound]
HCMV strain AD169; HCMV assay validity statement
  antiviral activity of positive control compound: expected levels of antiviral activity

## CC(C)(C)NC(=O)[C@@H]1CN(Cc2cccnc2)CCN1C[C@@H](O)C[C@@H](Cc1ccccc1)C(=O)N[C@H]1c2ccccc2C[C@H]1O [Indinavir, indinavir]
HIV-1IIIB
  antiviral activity of positive control compounds: expected levels of antiviral activity

## Ac-HWAVGHL-NH2 [Acetyl-GRP (20-26), Ac-His-Trp-Ala-Val-Gly-His-Leu-NH2]
HIV-1IIIB
  % CPE reduction in HIV-1 infected CEM-SS cells: 0.0%
[1]
  % inhibition of HBV replication in HEP G2 cells: 47.8%
[2]
  viability at 144 h, 10 micrograms per ml: 95.3%
Pseudomonas aeruginosa
  % inhibition: 0.0%
Streptococcus pneumoniae
  % inhibition: 0.0%
A549 cells [3]
  Cell cycle analysis G0/G1: 59.2
  Cell cycle analysis G2/M: 9.6
  Cell cycle analysis S: 31.2
[4]
  % of SAC/IL2 induced control: 123.6%
RAW 264.7 cells
  % of control phagocytosis: 102.9%
A549 cells [5]
  % of induction: 1.1%
A549 cells [6]
  % prevention of ceramide induced apoptosis: 0.0%
Spleen cells
  IFNγ spleen cells; TH1 response (% of control): 117.9 % of control
  IL-2 spleen cells (% of control): 202.7 % of control
  IL-4 spleen cells; TH2 response (% of control): 168.7 % of control
  IL-5 spleen cells; TH2 response (% of control): 102.5 % of control
  TNF-a spleen cells; TH1 response (% of control): 145.8 % of control
[7]
  % of LPS induction: 102.4%
[8]
  % inhibition of migration: 50%
HUVEC
  % inhibition of tube formation: 24%
MRSA
  % inhibition: 0.0%
In vitro [9]
  viability at 10 micrograms per ml: 100%
In vitro [10]
  viability at 144 h: 100%
HCMV strain AD169; HCMV in MRC-5 cells, peptide 10 micrograms per ml, 7-10 days
  % plaque reduction: 3.2%
[11]
  % of PHA induced control: 97.5%
